A word on the EC50: it is the midpoint of the concentration-response curve. A low value points to higher potency in that assay.

The structures appear in SMILES notation.

The values below come from paper PMC8524670 (Pharmacology Research & Perspectives, 2021).

The test system of one series is CYP2B6. In words: CYP induction in human hepatocytes. The class given is in vitro ADME.
In the next series the test system is CYP2C9. In words: CYP induction in human hepatocytes. The format is in vitro ADME.
[1] abbreviates: DDI basic model value for induction.
[2] abbreviates: human, cryopreserved human hepatocytes.
Setting [3] is: static model term, induction in liver.

As for `C=CC(=O)N1CCC([C@@H]2CCNc3c(C(N)=O)c(-c4ccc(Oc5ccccc5)cc4)nn32)CC1` [zanubrutinib], the “R 3” value in the series with CYP2B6 (setting [1]) was 0.55; in the series with CYP2C9 (setting [1]), […]. In the series on CYP2B6 (setting [2]), this compound came in with an EC50 at 2 days of 0.73 µM. Besides, the Ch with CYP2B6 (setting [3]) is given as 1.23; in the series with CYP2C9 (setting [3]), […]. This compound also registered an EC50 at 3 days in the series on CYP2C9 (setting [2]) of […].
